Test results: patent publication US7183075B2, “Purified and isolated potassium-chloride cotransporter nucleic acids and polypeptides and therapeutic and screening methods using same” (Vanderbilt University, priority 2000, dated 2007)
Read-outs that look alike come from different tables or passages of the source.

Target: T1, hKCC3a (Homo sapiens, UniProt Q9UHW9, L346X/L35X/L789X)
T1 construct: A full-length hKCC3a construct has also been generated for functional expression; expressed in transfected cells; host or cells: Xenopus laevis oocytes injected with cRNA
T1 sequence (Q9UHW9 1-1150 L35X/L346X/L789X): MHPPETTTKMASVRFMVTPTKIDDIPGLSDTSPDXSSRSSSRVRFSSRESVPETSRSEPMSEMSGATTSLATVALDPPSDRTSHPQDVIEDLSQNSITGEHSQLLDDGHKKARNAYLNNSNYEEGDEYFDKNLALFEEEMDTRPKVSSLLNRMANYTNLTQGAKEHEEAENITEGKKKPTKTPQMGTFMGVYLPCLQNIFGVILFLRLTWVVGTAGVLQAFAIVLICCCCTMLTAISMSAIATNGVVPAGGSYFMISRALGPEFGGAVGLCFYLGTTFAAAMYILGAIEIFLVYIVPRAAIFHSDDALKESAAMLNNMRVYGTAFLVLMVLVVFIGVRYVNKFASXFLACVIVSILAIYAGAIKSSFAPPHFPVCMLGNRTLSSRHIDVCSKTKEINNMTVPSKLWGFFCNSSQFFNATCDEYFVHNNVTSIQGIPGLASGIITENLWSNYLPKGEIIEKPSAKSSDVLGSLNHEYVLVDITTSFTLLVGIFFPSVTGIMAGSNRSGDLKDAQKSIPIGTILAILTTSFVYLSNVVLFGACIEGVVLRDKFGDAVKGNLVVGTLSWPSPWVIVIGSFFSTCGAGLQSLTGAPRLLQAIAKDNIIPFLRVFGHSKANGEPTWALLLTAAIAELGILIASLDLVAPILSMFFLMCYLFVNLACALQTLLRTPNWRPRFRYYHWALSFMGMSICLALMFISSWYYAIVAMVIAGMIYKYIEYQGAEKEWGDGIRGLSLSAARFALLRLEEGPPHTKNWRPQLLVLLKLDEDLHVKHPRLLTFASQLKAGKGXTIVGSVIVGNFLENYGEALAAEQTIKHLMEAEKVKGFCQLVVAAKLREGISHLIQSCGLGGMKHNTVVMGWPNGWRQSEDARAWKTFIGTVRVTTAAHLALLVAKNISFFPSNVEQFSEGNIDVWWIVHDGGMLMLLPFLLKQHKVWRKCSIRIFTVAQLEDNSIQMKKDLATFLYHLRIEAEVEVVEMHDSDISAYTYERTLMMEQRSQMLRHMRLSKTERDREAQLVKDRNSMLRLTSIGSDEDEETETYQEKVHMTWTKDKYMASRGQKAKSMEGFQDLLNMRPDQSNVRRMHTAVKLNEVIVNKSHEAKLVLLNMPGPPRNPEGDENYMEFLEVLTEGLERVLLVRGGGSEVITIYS
Assay: 86Rb+ uptake (K+-Cl- cotransport) in Xenopus oocytes injected with hKCC3a cRNA
Type: cell-based
Settings: for Km: KCC3

**Q.** For Cl [Chloride], which Km (read-out: Chloride Km) is on record?
**A.** 14.2 mM

**Q.** How did the Km (read-out: Potassium Km) turn out when [K+] [Potassium] was run?
**A.** 51.9 mM

**Q.** With HgCl2 [Hg—Cl2] as the molecule, how does the “response of KCC3a to mercury” value (50 μM HgCl2, hypotonic) read?
**A.** resistant
